Measurements published in patent EP1884251A1, “Use of fragrance compositions for the prevention of the development of indole based malodours from faecal and urine based soils” (Takasago International Corporation, priority 2006, dated 2008).

Test: Change in fragrance compound concentration during the indole inhibition test (GC-MS at start and after 24 hours)
Type: physicochemical
Conditions: in fresh human urine, room temperature; for Decrease in Fragrance Compounds after 24 hours (%) 0-30%: category 0-30%; for Decrease in Fragrance Compounds after 24 hours (%) >60%: category >60%
Method: Advantageously, the appropriate fragrance compounds may be selected by using the following preferred indole inhibition test which comprises the following steps: • A) 0.02g of fragrance and 0.02g of Tergitol 15-s-12 was added to 7g of fresh human urine in a 20 ml Headspace vial sealed with a PTFE faced septum and well mixed for 10 minutes using a magnetic stirrer. For a blank to test the suitability of a batch of fresh human urine, 7g of human urine was used with 0.02g of demineralised water and 0.02g of Tergitol 15-s-12. If a control was required, to test the efficacy of product base for example, the control contained 7g of human urine to which was added 0.02g of fragrance, minus the active agents and 0.02g of Tergitol 15-s-12. • B) The vials are placed in an autosampler tray at room temperature. • C) At different times the headspace in the vials is sampled for 5 minutes at 35°C by an SPME fibre (PDMS fibre ex Supelco) after 10 minutes at 35°C (incubation time). • D) The SPME fibre is desorbed 1 minute at 265°C from a CTC Combipal autosampler and injected in splitless mode onto an Agilent GC-MS 5973N with a HP-INNOWAX column (30m x 0.25 x 0.25). (Oven conditions : 50°C during 2min - to 250°C at 10°C/min - 250°C during 5 minutes). • E) Under the above GC-MS conditions, indole has a retention time of 19.14 minutes, and can be recognised by its characteristic ions (m/z 117, m/z 89 and m/z 90). • F) In the range of values determined in this work, the area of the indole peak (117) is linearly related to the actual concentration in the vial, and was used without further correction to establish the concentration of indole in "Active" and "Blank" and if present any "Control" fragrances. • G) The material is deemed to be active if the indole concentration in the test sample is below 0.01ppm (wt/wt) after 24 hours incubation at room temperature and the indole in the blank samples is between 0.25ppm (wt/wt) and 1.25ppm (wt/wt) indole after 24 hours storage at room temperature. • H) The change in the active ingredient concentration is determined by comparing measurements at the start of the experiment and after 24 hours using appropriate characteristic ions.
This can be determined by measuring the fragrance concentration in the sample containing the test cocktail at the start and end of the indole inhibition test as described in step I of the test. If the difference between the measurements is less than 60% preferably less than 30% then the material is considered as not to have changed sufficiently to alter the fragrance note and to be particularly preferred.
A sample of fresh human urine is divided into equal portions and a fragrance containing one or more of the effective materials was added as described in the Indole Inhibition Test. […] The samples were stored and after 24 hours the indole content and fragrance active content is measured by gas chromatography with mass spectrometric (GCMS) detection. Those formulations containing active ingredients prevented the formation of indole while both the unfragranced and the alcohol containing control samples had much greater quantities of indole present. Also for the active compounds a GCMS measurement indicated the extent to which the compound was itself consumed as part of the process. In table 2 the decrease in fragrance components has been classified into 3 categories and the letter Y indicates the appropriate category for the compounds which have been measured. The absence of a letter Y in any category means that the decrease has not been measured for that compound. Table 2. Examples of effective materials

## CC(C)=CCCC(C)=CC=O [Citral]
  Decrease in Fragrance Compounds after 24 hours (%) 0-30%: Y (Y= Yes)

## O=Cc1ccccc1 [Benzaldehyde]
  Decrease in Fragrance Compounds after 24 hours (%) 0-30%: Y (Y= Yes)

## C=C(C)C1CC=C(C=O)CC1 (stereo not shown) [Perilla aldehyde]
  Decrease in Fragrance Compounds after 24 hours (%) 0-30%: Y (Y= Yes)

## O=C/C=C/c1ccccc1 [Cinnamic aldehyde]
  Decrease in Fragrance Compounds after 24 hours (%) 0-30%: Y (Y= Yes)

## CCC/C=C/C=O [Trans 2 hexenal]
Category 0-60%
  Decrease in Fragrance Compounds after 24 hours (%) 0-60%: Y (Y= Yes)

## CCc1occc(=O)c1O [Veltol Plus]
  Decrease in Fragrance Compounds after 24 hours (%) >60%: Y (Y= Yes)

## CCCCCCCCCCC=O [Aldehyde C11]
  Decrease in Fragrance Compounds after 24 hours (%) >60%: Y (Y= Yes)
